# Publication PMC12748266, “Testing antimicrobial peptides inhibiting protein synthesis in living E. coli and K. pneumoniae using bio-orthogonal non-canonical amino-acid tagging” (Frontiers in Microbiology, 2025)
# No end group written: not given here.
# Legend:
# E. coli ATCC 25922 = assay: BONCAT protein synthesis inhibition after antimicrobial washout; assay type: cell-based, Escherichia coli; details: 10 or 30 min at MIC (time not given), then 30 min HPG
# Procedure: We used a modified protocol from [Lindivat et al. (2020)]. Briefly, overnight cultures of E. coli ATCC 25922 or K. pneumoniae ATCC 700603, prepared as described above, were diluted to a final concentration of 5×10^6 CFU/mL and allowed to adjust for 30 min at 37 °C. The culture was then incubated at 37 °C in the dark for 10 or 30 min in the presence or absence of each peptide or antibiotic at various concentrations, with a final volume of 1 mL. At this point, only in certain specified experimental assays, the compounds were removed from the supernatant by centrifugation (16,000 × g for 5 min) and bacteria were washed and resuspended in fresh supplemented M9 medium. […] If not analysed immediately, the fixed samples were stored at 4 °C prior to performing the click chemistry reaction. […]
# An overnight culture of E. coli ATCC 25922, or of K. pneumoniae ATCC 700603, prepared as described above, was diluted to a final concentration of 5 × 10^6 CFU/mL and allowed to adjust for 30 min at 37 °C under shaking. Membrane permeabilization of bacteria was then assessed by incubating bacteria at 37 °C, in a final volume of 1 mL, with varying concentrations of each peptide or antibiotic used for the BONCAT assay. […] The fluorescence of untreated cells was used to establish the gating for positive PI-stained cells. […]
# [1] = tested on: K. pneumoniae ATCC 700603; assay: Cell membrane permeabilization, propidium iodide flow cytometry; assay type: cell-based, Klebsiella pneumoniae; details: compound at its MIC, 40 min, 5 × 10^6 CFU/mL, supplemented M9; mean of n = 3
# Procedure: An overnight culture of E. coli ATCC 25922, or of K. pneumoniae ATCC 700603, prepared as described above, was diluted to a final concentration of 5 × 10^6 CFU/mL and allowed to adjust for 30 min at 37 °C under shaking. Membrane permeabilization of bacteria was then assessed by incubating bacteria at 37 °C, in a final volume of 1 mL, with varying concentrations of each peptide or antibiotic used for the BONCAT assay. 5 min before the ending of the selected incubation time (40 min), propidium iodide probe was added to the samples to a final concentration of 10 μg/mL before analysis using a flow cytometer. A positive control consisted of E. coli cells dehydrated with ethanol (as described above), while untreated cells were used as negative control. The fluorescence of untreated cells was used to establish the gating for positive PI-stained cells. Fixed bacterial cells, subjected to the click chemistry reaction to link the Alexa Fluor azide 488 probe, were analysed by flow cytometry and, among the gates-selected ones, only those that tested positive for Propidium Iodide, and thus permeabilized, were considered for the calculation of the mean fluorescence intensity (MFI) of the Alexa Fluor azide 488.
# Samples were analyzed by an Attune NxT® (ThermoFisher) equipped with a blue laser (488 nm) and photomultiplier tubes (PMTs) BL1 (525/50) and BL3 (695/40) to collect fluorescence. All parameters were set in logarithmic scale and the signals were recorded as Area. Forward scattering (FSC) was set to 300 mV, side scattering (SSC) to 350 mV and thresholds to 0.2 for FSC and 0.5 for SSC. The compensation matrix was performed according to the tool software. Hierarchical gates and acquisition flow rate (200 μL/min) were set to avoid coincident events. The files were saved as FCS 3.1 and analysed by FCS Express De Novo software v7. Flow cytometry data are presented as means ± SD from three independent experiments (n = 3).
Molecule,Reduction in fluorescence after washout (E. coli ATCC 25922),Membrane permeabilization (% PI +cells) [1]
"O=C(N[C@H](CO)[C@H](O)c1ccc([N+](=O)[O-])cc1)C(Cl)Cl [CHL, Chloramphenicol]",lost most of its inhibitory effects once removed from the medium,–
"CO[C@H]1/C=C/O[C@@]2(C)Oc3c(C)c(O)c4c(O)c(c(/C=N/N5CCN(C)CC5)c(O)c4c3C2=O)NC(=O)/C(C)=C\C=C\[C@H](C)[C@H](O)[C@@H](C)[C@@H](O)[C@@H](C)[C@H](OC(C)=O)[C@@H]1C [RIF, Rifampicin]",over 20%,<1%
RRIRPRPPRLPRPRPR [Bac7(1–16)],–,<1%
RRIRPRPPRLPRPRPRPLPFPRPGPRPIPRPLPFP [Bac7(1–35)],–,<1%
